Legend:
CCL2 = CCL2 expression in cerebral cortex after TBI (qPCR); assay type: in vivo, mouse; conditions: 25 mg/kg salsalate
Protocol: (§1) Drug preparation and administration: CGP3466B (Sigma-Aldrich, SML1941) was dissolved in DMSO and then diluted in sterile saline. The final working stock was 0.0014 mg/ml for administering the 0.014 mg/kg dose. Intraperitoneal administration of CGP3466B was initiated 15 min or 24 h after injury, and tissues were harvested 6 h (for SNO-GAPDH, SNO-SIRT1 measurement) or 2 weeks (for ac-tau measurement) later, respectively. Salsalate (AdipoGen, AG-CR1-3574) was dissolved in DMSO and then diluted in sterile PBS. The final working stocks were as follows: 2.5 mg/ml (25 mg/kg dose), 1 mg/ml (10 mg/kg dose), 0.5 mg/ml (5 mg/kg dose). Daily intraperitoneal administration of salsalate was initiated 24 hr after injury and continued throughout behavioral testing. P7C3-A20 and FK866 (Sigma-Aldrich, F8557) were first dissolved in 1 vol of DMSO, followed by addition of 4 vol of Kolliphor and vigorously vortexing. The solution was then diluted with 30 vol of filtered 5% dextrose (pH 7.0). EX527 (Selleckchem, S1541) was dissolved in 1% DMSO+30% polyethylene glycol+1% Tween 80. Daily intraperitoneal administration of P7C3-A20 was initiated 24 hr after poly-traumatic brain injury. EX527 (10 mg/kg) was administer once a day and FK866 was treated twice per day, with the first injection given at the same time as P7C3-A20 (20 mg/kg) and the second injection given 6 h later (LoCoco et al., 2017 eLife). […]

IL-1β = IL-1β expression in cerebral cortex after TBI (qPCR); assay type: in vivo, mouse; conditions: 25 mg/kg salsalate
Protocol: as §1

clinically-diagnosed TBI = assay: Pharmacoepidemiologic cohort analysis (MarketScan Medicare Supplemental database), incidence of TBI; assay type: in vivo, human; conditions: vs. PS-matched aspirin cohort, Cox regression model, 6 years of follow-up
From the text: Because ac-tau has been generally reported in the brains of subjects with AD, we evaluated the relationship between salsalate or diflunisal use and incidence of clinically-diagnosed TBI or AD by analyzing 7.23 million U.S. commercially-insured individuals (MarketScan Medicare Supplemental database). We conducted two cohort analyses to evaluate the predicted association, based on individual level of longitudinal patient data and pharmacoepidemiologic methods, as previously established (Cheng et al., 2018). Thus, our two cohorts included: (1) salsalate vs. a matched aspirin population and (2) diflunisal vs. a matched aspirin population (Table 2). For each comparison, we estimated the un-stratified Kaplan-Meier curves and conducted propensity score (PS) stratified (n strata=10) log-rank tests and a Cox regression model after adjusting age, race, sex, and disease comorbidities (including diabetes, hypertension, and coronary artery disease) using a propensity score-matching method (Methods).
Study cohorts. The IBM® MarketScan® Medicare Supplemental Database is one of the first in the U.S. to profile the healthcare experience of retirees with Medicare supplemental insurance paid by employers. The MarketScan Medicare Supplemental Database provides detailed cost, use and outcomes data for healthcare services performed in both inpatient and outpatient settings. […]

O=C(Oc1ccccc1C(=O)O)c1ccccc1O [salsalate]
TBI-induced increase of CCL2 in cerebral cortex (CCL2): this increase is not attenuated | TBI-induced increase of IL-1β in cerebral cortex (IL-1β): this increase is not attenuated | hazard ratio [HR], clinically-diagnosed TBI (clinically-diagnosed TBI): 0.70
